Entries after “also recorded” stand apart in the source; their conditions may differ.
Experiments:
[1] = test system: rat brain synaptosomes; experiment: 6-OHDA-induced neurotoxicity, synaptosomal viability; assay type: cell-based; conditions: for protective effect in 6-OHDA model (in words): 10 µM, synaptosomal viability and GSH level
Experimental: (§1) Synaptosomes were prepared from brains of adult male Wistar rats. The brains were homogenized in 10 volume of cold buffer 1, containing 5 mM HEPES and 0.32 M sucrose (pH = 7.4). The brain homogenate was centrifuged twice at 1000× g for 5 min at 4 °C. The supernatant was collected and centrifuged 3 times at 10,000× g for 20 min at 4 °C. The pellet was re-suspended in ice-cold buffer 1. The synaptosomes were isolated by using Percoll reagent to prepare the gradient. Synaptosomes were re-suspended and incubated in buffer 2, containing 290 mM NaCl, 0.95 mM MgCl2 × 6H2O, 10 mM KCl, 2.4 mM CaCl2 × H2O, 2.1 mM NaH2PO4, 44 mM HEPES, and 13 mM D-glucose. Incubations were performed in a 5% CO2 + 95% O2 atmosphere. The content of synaptosomal protein was determined according to the method of Lowry et al. using bovine serum albumin as a standard.
Synaptosomal viability was measured by (3-(4,5)-dimethylthiazol-2-yl)-2,5-diphenyl tetrazolium bromide)-test, described by Mungarro-Menchaca et al. The synaptosomes were incubated with the compounds and then treated with (3-(4,5)-dimethylthiazol-2-yl)-2,5-diphenyl tetrazolium bromide) solution (0.5 mg/mL) for 1 h at 37 °C. After incubation they were centrifuged at 15,000× g for 1 min. The formed formazan crystals were dissolved in DMSO (Dimethyl sulfoxide). The extinction was measured spectrophotometrically at λ = 580 nm.
(§2) The metabolism and oxidation of dopamine cause reactive oxygen radicals and reactive quinones to be produced, which could lead to neurotoxicity and neurodegeneration. The synaptosomes were incubated with the compounds (10 µM) for 30 min and then 6-hydroxydopamnine (150 mmol/L) was used to induce neurotoxicity. […] After 1 h, they were centrifuged on a microcentrifuge for 1 min at 15,000 rpm. The precipitates were gently mixed with buffer B and glucose and centrifuged for a second time at 15,000 rpm for 1 min. After the second wash, buffer B and glucose were added to the precipitates.
(§3) In the presented experiments, an in vitro assessment of the possible antioxidant and neuroprotective effects of the newly synthetized compounds was performed in a model of 6-OHDA induced toxicity in rat brain synaptosomes. 6-OHDA is a neurotoxicant that structurally resembles dopamine and can be used in different in vivo and in vitro models for neurotoxicity. This model resembles the histological, biochemical, and physiological characteristics of neurodegenerative diseases such as Parkinson’s and Alzheimer’s disease. […] However, their uptake into brain synaptosomes is similar among primates and rodents and they are suitable in vitro models for PD. The main mechanism of 6-OHDA toxicity includes induction of oxidative stress. It undergoes auto-oxidation or metabolic degradation to p-quinone and produces hydrogen peroxide, superoxide, and hydroxyl radicals. The process causes lipid peroxidation, protein oxidation, and DNA oxidation and finally results in oxidative stress and mitochondrial dysfunction. Rat brain synaptosomes were pretreated with compounds 3e, 3h, 3i, 3m, melatonin, and rasagiline (10 μM); after that, the samples were subjected to 6-OHDA (150 mmol/L, 1 h). The protective effects were evaluated by measurement of synaptosomal viability (MTT-test) and GSH levels (Figure 3).

[2] = Superoxide scavenging, non-enzymatic KO2/NBT assay; conditions: 100 µM; text says enzymatic assay
Experimental: Superoxide radicals scavenging activity (non-enzymatic assay): 1 mL PBS, pH 7.4 contains 0.04 mmol/L NBT and the tested hydrazone in the concentrations indicated on the figures. No drug was added to the control samples. One minute after the addition of 20 μL of KO2 dissolved in DMSO, the absorbance at 560 nm was measured.
The results from both assays have been presented as a percentage of the control sample.
The potency of the compounds selected as the most promising from the cell model systems and hMAOB inhibitory studies was estimated against enzymatically (xanthine/XO system) and non-enzymatically (KO2/NBT) produced superoxide radicals (Figure 7). In the xanthine-xanthine oxidase system the generation of O2^−^● is a result of an enzymatic reaction. The molecular mechanism of action of the XO enzyme is associated with catalysation of the reaction of oxidation of hypoxanthine and xanthine and generation of uric acid. During the process of reoxidation of the enzyme, the molecular oxygen acts as an electron acceptor and the formation of physiologically important ROS, such as the superoxide radical (O2^−^●) and hydrogen peroxide (H2O2), has been observed. In the potassium superoxide-containing systems, superoxide radical generation is due to the direct addition of the KO2 to the water sample solution. […]

[3] = Fe(II)-induced oxidative damage of lecithin (TBA-RS); conditions: 90 µmol/L
Experimental: (§4) The classical method of determining the TBA-reactive substances at 532 nm as described by Asakawa and Matsushita has been used. Two groups of measurement compositions named controls and samples were prepared in phosphate buffer (K2HPO4/KH2PO4, pH 7.4) for each of the used substrates. Both of them contained equivalent concentrations of lecithin (1 mg/mL) or 2-deoxyribose (0.5 mmol/L) and FeCl2 (0.1 mmol/L). In the controls, the tested hydrazones have been omitted and in the samples the effect of the newly designed compounds at the concentrations indicated below the figures has been determined. The obtained samples were incubated at 37 °C for 30 min. The reaction was stopped, and after adding 0.5 mL 2.8% trichloroacetic acid and 0.5 mL of thiobarbituric acid, the samples were heated in boiling water for 20 min. The lecithin containing samples were centrifuged at 3000 rpm for 20 min and the supernatant was aspired out. The results have been presented as a percentage of the control sample, treated only with ferrous iron where we expected maximum oxidative damage under the described conditions.

[4] = Fe(II)-induced degradation of 2-deoxyribose (TBA-RS); conditions: 80 µmol/L, 2-deoxyribose 0.5 mmol/L
Experimental: as §4

[5] = test system: rat brain synaptosomes; experiment: 6-OHDA-induced neurotoxicity, GSH level; assay type: cell-based; conditions: 10 µM pretreatment, 6-OHDA 150 mmol/L 1 h
Experimental: as §1, §2, §3

[6] = test system: SH-SY5Y cells; experiment: H2O2-induced oxidative stress model in SH-SY5Y cells; assay type: cell-based, human; conditions: for cell viability protection vs. H2O2-treatment: 50 µM, 90 min pre-incubation, H2O2 1 mM 15 min; for protective effect in H2O2-induced oxidative stress model (in words): 1, 10, 50 µM
Experimental: SH-SY5Y cells were seeded in 96-well plates at a density of 3.5 × 10^4/well and allowed to attach at the wells’ bottom overnight. […] Afterwards, the SH-SY5Y cells were washed with phosphate-buffered saline (PBS) to remove the extracellular amount of the test compounds. […] Then, the contents of all wells were changed with culture medium. After 24 h, the amount of attached viable cells was evaluated by MTT assay. […] Rasagiline and melatonin (Sigma-Aldrich Chemie GmbH) were used as reference compounds because of their well-established neuroprotective activity. […] The toxic mechanisms of hydrogen peroxide include the generation of reactive hydroxyl radicals and formation of products which could damage cellular lipids, proteins and DNA. […] For comparison, the effects of two compounds with well established antioxidant activity—rasagiline and melatonin—were also evaluated.

Structure (SMILES) | protective effect in 6-OHDA model (in words) [1] | increase of absorbance compared to the controls [2] [times] | sample/control absorbance ratio (% of the control), lecithin peroxidation ([3]; lecithin 1 mg/mL, FeCl2 0.1 mmol/L) | increase of synaptosomal viability vs. 6-OHDA treatment ([1]; 10 µM pretreatment, 6-OHDA 1 h) [%] | antioxidant effect on Fe(II) induced deoxyribose degradation (in words) [4] | restoration of GSH level vs. 6-OHDA treatment [5] [%] | cell viability protection vs. H2O2-treatment [6] [%] | protective effect in H2O2-induced oxidative stress model (in words) [6] | lecithin peroxidation effect compared with 3a (in words) [3]
O=C(CCn1c(=S)n(CCC(=O)NN=Cc2ccccc2O)c2ccccc21)NN=Cc1ccccc1O [3e, 3,3′-(2-Thioxo-1H-benzo[d]imidazole-1,3(2H)-diyl)bis(N′-(2-hydroxybenzylidene)propanehydrazide)] | less pronounced protective effects | 1.5 | – | – | – | – | – | – | –
O=C(CCn1c(=S)n(CCC(=O)NN=Cc2cccc(O)c2O)c2ccccc21)NN=Cc1cccc(O)c1O [3h, 3,3′-(2-Thioxo-1H-benzo[d]imidazole-1,3(2H)-diyl)bis(N′-(2,3-dihydroxybenzylidene)propanehydrazide)] | – | – | around 40% | 71 | stronger than the reference melatonin and similar to Trolox; also recorded: better protection effect than the reference melatonin, and a similar effect to the antioxidant Trolox | 62 | 79 | even more pronounced than those of melatonin and rasagiline | –
O=C(CCn1c(=S)n(CCC(=O)NN=Cc2ccc(O)cc2O)c2ccccc21)NN=Cc1ccc(O)cc1O [3i, 3,3′-(2-Thioxo-1H-benzo[d]imidazole-1,3(2H)-diyl)bis(N′-(2,4-dihydroxybenzylidene)propanehydrazide)] | less pronounced protective effects | 2.5 | – | – | – | – | 80 | even more pronounced than those of melatonin and rasagiline | statistically identical effect to 3a
COc1ccc(C=NNC(=O)CCn2c(=S)n(CCC(=O)NN=Cc3ccc(OC)cc3O)c3ccccc32)c(O)c1 [3m, 3,3′-(2-Thioxo-1H-benzo[d]imidazole-1,3(2H)-diyl)bis(N′-(2-hydroxy-4-methoxybenzylidene)propanehydrazide)] | less pronounced protective effects | – | – | – | – | – | – | – | –
